In brackets after ≈: the same amount, converted by molar mass.
Legend:
Assay type in all cases: functional
[1] = test system: Staphylococcus aureus; assay: Antibacterial activity against inducible macrolide-lincosamide-streptogramin B-resistant Staphylococcus aureus B0538 by agar microdilution method
[2] = test system: Streptococcus pneumoniae; assay: Antibacterial activity against efflux-resistant Streptococcus pneumoniae B0326 by agar microdilution method
[3] = test system: Staphylococcus aureus; assay: Antibacterial activity against erythromycin A-susceptible Staphylococcus aureus B0329 by agar microdilution method
[4] = test system: Moraxella catarrhalis; assay: Antibacterial activity against Moraxella catarrhalis B0324 by agar microdilution method
[5] = test system: Streptococcus pneumoniae; assay: Antibacterial activity against erythromycin A-susceptible Streptococcus pneumoniae B0541 by agar microdilution method
[6] = test system: Streptococcus pyogenes; assay: Antibacterial activity against constitutive macrolide-lincosamide-streptogramin B-resistant Streptococcus pyogenes B0544 by agar microdilution method
[7] = test system: Staphylococcus aureus; assay: Antibacterial activity against efflux-resistant Staphylococcus aureus B0331 by agar microdilution method
[8] = test system: Streptococcus pyogenes; assay: Antibacterial activity against inducible macrolide-lincosamide-streptogramin B-resistant Streptococcus pyogenes B0543 by agar microdilution method
[9] = test system: Streptococcus pneumoniae; assay: Antibacterial activity against constitutive macrolide-lincosamide-streptogramin B-resistant Streptococcus pneumoniae B0627 by agar microdilution method
[10] = test system: Staphylococcus aureus; assay: Antibacterial activity against constitutive macrolide-lincosamide-streptogramin B-resistant Staphylococcus aureus B0330 by agar microdilution method
[11] = test system: Haemophilus influenzae; assay: Antibacterial activity against Haemophilus influenzae B0529 by agar microdilution method
[12] = test system: Streptococcus pyogenes; assay: Antibacterial activity against erythromycin A-susceptible Streptococcus pyogenes B0542 by agar microdilution method
[13] = test system: Streptococcus pyogenes; assay: Antibacterial activity against efflux-resistant Streptococcus pyogenes B0545 by agar microdilution method

Row | Compound | MIC [1] [µg/mL] | MIC [2] [µg/mL] | MIC [3] [µg/mL] | MIC [4] [µg/mL] | MIC [5] [µg/mL] | MIC [6] [µg/mL] | MIC [7] [µg/mL] | MIC [8] [µg/mL] | MIC [9] [µg/mL] | MIC [10] [µg/mL] | MIC [11] [µg/mL] | MIC [12] [µg/mL] | MIC [13] [µg/mL]
1 | CC[C@H]1OC(=O)[C@H](C)C(=O)[C@H](C)[C@@H](O[C@@H]2O[C@H](C)C[C@H](N(C)C)[C@H]2O)[C@](C)(OCC(O)CN(C)CCc2ccc([N+](=O)[O-])cc2)C[C@@H](C)NC(=O)[C@H](C)[C@H](O)[C@@]1(C)O (stereo partly drawn) | 0.5 (≈ 0.606 µM) | 0.5 (≈ 0.606 µM) | ≤ 0.125 | ≤ 0.125 | ≤ 0.125 | 1 (≈ 1.21 µM) | 1 (≈ 1.21 µM) | 0.25 (≈ 0.303 µM) | ≤ 0.125 | > 64 | 1 (≈ 1.21 µM) | ≤ 0.125 | 0.25 (≈ 0.303 µM)
2 | CC[C@H]1OC(=O)[C@H](C)C(=O)[C@H](C)[C@@H](O[C@@H]2O[C@H](C)C[C@H](N(C)C)[C@H]2O)[C@](C)(OC/C=C/c2cnc3ccccc3c2)C[C@@H](C)NC(=O)[C@H](C)[C@H](O)[C@@]1(C)O | 0.5 (≈ 0.661 µM) | 0.5 (≈ 0.661 µM) | 1 (≈ 1.32 µM) | 0.25 (≈ 0.331 µM) | ≤ 0.125 | 8 (≈ 10.6 µM) | 0.5 (≈ 0.661 µM) | 1 (≈ 1.32 µM) | 16 (≈ 21.2 µM) | > 64 | 4 (≈ 5.29 µM) | ≤ 0.125 | 1 (≈ 1.32 µM)
3 | CC[C@H]1OC(=O)[C@H](C)C(=O)[C@H](C)[C@@H](O[C@@H]2O[C@H](C)C[C@H](N(C)C)[C@H]2O)[C@](C)(OC/C=C/c2ccnc3ccccc23)C[C@@H](C)NC(=O)[C@H](C)[C@H](O)[C@@]1(C)O | 1 (≈ 1.32 µM) | 1 (≈ 1.32 µM) | 0.5 (≈ 0.661 µM) | 0.5 (≈ 0.661 µM) | ≤ 0.125 | 16 (≈ 21.2 µM) | 2 (≈ 2.65 µM) | 2 (≈ 2.65 µM) | > 64 | > 64 | 4 (≈ 5.29 µM) | 0.25 (≈ 0.331 µM) | 2 (≈ 2.65 µM)
4 | CC[C@H]1OC(=O)[C@H](C)[C@@H](O[C@@H]2C[C@@](C)(OC)[C@@H](O)[C@H](C)O2)[C@H](C)[C@@H](O[C@@H]2O[C@H](C)C[C@H](N(C)C)[C@H]2O)[C@](C)(OC/C=C/NCCc2ccc([N+](=O)[O-])cc2)C[C@@H](C)C(=O)N[C@H](C)[C@H](O)[C@@]1(C)O | > 64 | 16 (≈ 16.8 µM) | 32 (≈ 33.6 µM) | 8 (≈ 8.39 µM) | > 64 | > 64 | 32 (≈ 33.6 µM) | 4 (≈ 4.2 µM) | > 64 | > 64 | 64 (≈ 67.1 µM) | 0.125 (≈ 0.131 µM) | 16 (≈ 16.8 µM)
5 | CC[C@H]1OC(=O)[C@H](C)C(=O)[C@H](C)[C@@H](O[C@@H]2O[C@H](C)C[C@H](N(C)C)[C@H]2O)[C@](C)(OCC(O)CNCCc2ccccc2)C[C@@H](C)NC(=O)[C@H](C)[C@H](O)[C@@]1(C)O (stereo partly drawn) | 16 (≈ 20.9 µM) | 16 (≈ 20.9 µM) | 4 (≈ 5.22 µM) | 0.5 (≈ 0.653 µM) | 0.25 (≈ 0.326 µM) | 16 (≈ 20.9 µM) | 8 (≈ 10.4 µM) | 1 (≈ 1.31 µM) | 8 (≈ 10.4 µM) | > 64 | 16 (≈ 20.9 µM) | 0.5 (≈ 0.653 µM) | 1 (≈ 1.31 µM)
6 | C=CCO[C@]1(C)C[C@@H](C)NC(=O)[C@H](C)[C@H](O)[C@@](C)(O)[C@@H](CC)OC(=O)[C@H](C)C(=O)[C@H](C)[C@H]1O[C@@H]1O[C@H](C)C[C@H](N(C)C)[C@H]1O | 2 (≈ 3.18 µM) | 16 (≈ 25.4 µM) | 2 (≈ 3.18 µM) | ≤ 0.125 | ≤ 0.125 | > 64 | 8 (≈ 12.7 µM) | 16 (≈ 25.4 µM) | > 64 | > 64 | 16 (≈ 25.4 µM) | 0.25 (≈ 0.398 µM) | 8 (≈ 12.7 µM)
7 | CC[C@H]1OC(=O)[C@H](C)C(=O)[C@H](C)[C@@H](O[C@@H]2O[C@H](C)C[C@H](N(C)C)[C@H]2O)[C@](C)(OC[C@@H](O)CN2CCN(c3ccc4c(c3F)c(=O)c(C(=O)O)cn4C3CC3)CC2)C[C@@H](C)NC(=O)[C@H](C)[C@H](O)[C@@]1(C)O | 0.25 (≈ 0.256 µM) | ≤ 0.125 | ≤ 0.125 | ≤ 0.125 | ≤ 0.125 | 2 (≈ 2.05 µM) | 0.25 (≈ 0.256 µM) | ≤ 0.125 | ≤ 0.125 | 2 (≈ 2.05 µM) | ≤ 0.125 | ≤ 0.125 | 0.5 (≈ 0.512 µM)
8 | C=CCO[C@]1(C)C[C@@H](C)C(=O)N[C@H](C)[C@H](O)[C@@](C)(O)[C@@H](CC)OC(=O)[C@H](C)C(=O)[C@H](C)[C@H]1O[C@@H]1O[C@H](C)C[C@H](N(C)C)[C@H]1O [3-O-DESCLADINOSYL-3-OXO-6-O-ALLYL-9A-AZA-9A-HOMOERYTHROMYCIN A] | > 64 | > 64 | > 64 | 16 (≈ 25.4 µM) | > 64 | > 64 | > 64 | > 64 | > 64 | > 64 | > 64 | > 64 | > 64
9 | CC[C@H]1OC(=O)[C@H](C)[C@@H](O[C@H]2C[C@@](C)(OC)[C@@H](O)[C@H](C)O2)[C@H](C)[C@@H](O[C@@H]2O[C@H](C)C[C@H](N(C)C)[C@H]2O)[C@](C)(O)C[C@@H](C)CN(C)[C@H](C)[C@@H](O)[C@]1(C)O [AZITHROMYCIN] | > 64 | 4 (≈ 5.34 µM) | 1 (≈ 1.34 µM) | 0.25 (≈ 0.334 µM) | ≤ 0.125 | > 64 | > 64 | 8 (≈ 10.7 µM) | > 64 | > 64 | 1 (≈ 1.34 µM) | ≤ 0.125 | 1 (≈ 1.34 µM)
10 | CC[C@H]1OC(=O)[C@H](C)C(=O)[C@H](C)[C@@H](O[C@@H]2O[C@H](C)C[C@H](N(C)C)[C@H]2O)[C@](C)(OCC(O)CN2CCN(c3ccc4c(c3)c(=O)c(C(=O)O)cn4C3CC3)CC2)C[C@@H](C)NC(=O)[C@H](C)[C@H](O)[C@@]1(C)O (stereo partly drawn) | 0.25 (≈ 0.261 µM) | 0.5 (≈ 0.522 µM) | 0.25 (≈ 0.261 µM) | 1 (≈ 1.04 µM) | ≤ 0.125 | 4 (≈ 4.17 µM) | 2 (≈ 2.09 µM) | 0.25 (≈ 0.261 µM) | 1 (≈ 1.04 µM) | > 64 | 2 (≈ 2.09 µM) | ≤ 0.125 | 2 (≈ 2.09 µM)
11 | CC[C@H]1OC(=O)[C@H](C)C(=O)[C@H](C)[C@@H](O[C@@H]2O[C@H](C)C[C@H](N(C)C)[C@H]2O)[C@](C)(OCC(O)CNCCNc2cc3c(=O)c(C(=O)O)cn(C4CC4)c3cc2Cl)C[C@@H](C)NC(=O)[C@H](C)[C@H](O)[C@@]1(C)O (stereo partly drawn) | 2 (≈ 2.07 µM) | 1 (≈ 1.03 µM) | 1 (≈ 1.03 µM) | 4 (≈ 4.14 µM) | ≤ 0.125 | 32 (≈ 33.1 µM) | 0.5 (≈ 0.517 µM) | 4 (≈ 4.14 µM) | 4 (≈ 4.14 µM) | > 64 | 8 (≈ 8.28 µM) | ≤ 0.125 | 4 (≈ 4.14 µM)
12 | CC[C@H]1OC(=O)[C@H](C)C(=O)[C@H](C)[C@@H](O[C@@H]2O[C@H](C)C[C@H](N(C)C)[C@H]2O)[C@](C)(OCC(O)CNc2ccc3ncccc3c2)C[C@@H](C)NC(=O)[C@H](C)[C@H](O)[C@@]1(C)O (stereo partly drawn) | 2 (≈ 2.53 µM) | 2 (≈ 2.53 µM) | 2 (≈ 2.53 µM) | 0.5 (≈ 0.634 µM) | ≤ 0.125 | 16 (≈ 20.3 µM) | 1 (≈ 1.27 µM) | 4 (≈ 5.07 µM) | 8 (≈ 10.1 µM) | 64 (≈ 81.1 µM) | ≤ 0.125 | ≤ 0.125 | 8 (≈ 10.1 µM)
13 | CC[C@H]1OC(=O)[C@H](C)C(=O)[C@H](C)[C@@H](O[C@@H]2O[C@H](C)C[C@H](N(C)C)[C@H]2O)[C@](C)(OCC(O)CN2CCN(c3ccc4c(c3F)c(=O)c(C(=O)OC)cn4C3CC3)CC2)C[C@@H](C)NC(=O)[C@H](C)[C@H](O)[C@@]1(C)O (stereo partly drawn) | > 64 | 0.25 (≈ 0.252 µM) | 4 (≈ 4.04 µM) | 0.5 (≈ 0.505 µM) | 0.125 (≈ 0.126 µM) | > 64 | 32 (≈ 32.3 µM) | > 64 | > 64 | > 64 | 4 (≈ 4.04 µM) | 0.125 (≈ 0.126 µM) | 16 (≈ 16.2 µM)
14 | C=CCO[C@]1(C)C[C@@H](C)C(=O)N[C@H](C)[C@H](O)[C@@](C)(O)[C@@H](CC)OC(=O)[C@H](C)[C@@H](O[C@@H]2C[C@@](C)(OC)[C@@H](O)[C@H](C)O2)[C@H](C)[C@H]1O[C@@H]1O[C@H](C)C[C@H](N(C)C)[C@H]1O | > 64 | > 64 | > 64 | 4 (≈ 5.07 µM) | > 64 | > 64 | > 64 | 4 (≈ 5.07 µM) | > 64 | > 64 | 64 (≈ 81.1 µM) | ≤ 0.125 | > 64
15 | CC[C@H]1OC(=O)[C@H](C)C(=O)[C@H](C)[C@@H](O[C@@H]2O[C@H](C)C[C@H](N(C)C)[C@H]2O)[C@](C)(OC)C[C@@H](C)C(=O)[C@H](C)[C@H]2N(CCCCn3cnc(-c4cccnc4)c3)C(=O)O[C@]12C [TELITHROMYCIN] | 0.5 (≈ 0.616 µM) | 0.5 (≈ 0.616 µM) | ≤ 0.125 | ≤ 0.125 | 0.06 (≈ 0.0739 µM) | 4 (≈ 4.93 µM) | 0.25 (≈ 0.308 µM) | ≤ 0.06 | ≤ 0.125 | > 64 | 2 (≈ 2.46 µM) | ≤ 0.06 | 0.25 (≈ 0.308 µM)
16 | CC[C@H]1OC(=O)[C@H](C)C(=O)[C@H](C)[C@@H](O[C@@H]2O[C@H](C)C[C@H](N(C)C)[C@H]2O)[C@](C)(OCC(O)CNCC(C)C)C[C@@H](C)NC(=O)[C@H](C)[C@H](O)[C@@]1(C)O (stereo partly drawn) | 64 (≈ 89.1 µM) | 64 (≈ 89.1 µM) | 64 (≈ 89.1 µM) | 16 (≈ 22.3 µM) | 16 (≈ 22.3 µM) | > 64 | 64 (≈ 89.1 µM) | 64 (≈ 89.1 µM) | > 64 | > 64 | > 64 | 8 (≈ 11.1 µM) | 8 (≈ 11.1 µM)
